Data published in patent US10875855B2 (priority 2011, dated 2020).

Key:
[1] = tested on: influenza A virus (A/PR/8/34); test: MDCK cytopathic effect (CPE) cell protection assay, ATP detection; assay type: cell-based; conditions: Influenza A virus, PR/8, MDCK, 72 h, Table 1; MDCK cells, A/PR/8/34, 72 hours, 50% cell protection, mean all; class symbol; read-out: MDCK IC50
[2] = tested on: influenza A virus (A/PR/8/34); test: microbe, parasite or virus in culture; assay type: cell-based; conditions: Influenza A virus, PR/8, Table 1, mean all, class symbol; for EC99: read-out: bDNA EC99; for EC50: viral RNA 50% of control wells, read-out: bDNA EC50

| SMILES | IC50 [1] [nM] | EC99 [2] [µM] | EC50 [2] [nM] |
| --- | --- | --- | --- |
| CC(C)(C)C(CCO)Nc1nc(-c2c[nH]c3ncc(F)cc23)c(C#N)cc1F (racemic) [Compound 41, (+/−)-5-fluoro-2-(5-fluoro-1H-pyrrolo[2,3-b]pyridin-3-yl)-6-(1-hydroxy-4,4-dimethylpentan-3-ylamino)pyridine-3-carbonitrile] | < 300 | 0.3 to 3.3 | < 300 |
| CC1(C(CC(=O)O)Nc2nc(-c3c[nH]c4ncc(F)cc34)ncc2F)CCCCC1 (stereo not drawn) [Compound 78, 3-(5-fluoro-2-(5-fluoro-1H-pyrrolo[2,3-b]pyridin-3-yl)pyrimidin-4-ylamino)-3-(1-methylcyclohexyl)propanoic acid] | < 300 | 0.3 to 3.3 | < 300 |
| CC(C)(C)[C@@H](CC(=O)O)Nc1nc(-c2c[nH]c3ncc(C(F)(F)F)cc23)ncc1F [Compound 43, (R)-3-((5-fluoro-2-(5-(trifluoromethyl)-1H-pyrrolo[2,3-b]pyridin-3-yl)pyrimidin-4-yl)amino)-4,4-dimethylpentanoic acid] | < 300 | < 0.3 | < 300 |
| CC(C)(C)[C@@H](CS(=O)(=O)CC(=O)O)Nc1nc(-c2c[nH]c3ncc(F)cc23)ncc1F [Compound 60, (S)-2-(2-(5-fluoro-2-(5-fluoro-1H-pyrrolo[2,3-b]pyridin-3-yl)pyrimidin-4-ylamino)-3,3-dimethylbutylsulfonyl)ethanoic acid] | < 300 | > 3.3 | 300 to 3300 |
| CC(C)(C)[C@@H](CC(=O)O)Nc1ccnc(-c2n[nH]c3ncc(F)cc23)n1 [Compound 48, (R)-3-((2-(5-fluoro-1H-pyrazolo[3,4-b]pyridin-3-yl)pyrimidin-4-yl)amino)-4,4-dimethylpentanoic acid] | < 300 | 0.3 to 3.3 | 300 to 3300 |
| CCNS(=O)(=O)C[C@@H](Nc1nc(-c2c[nH]c3ncc(F)cc23)ncc1F)C(C)(C)C [Compound 33, (S)—N-Ethyl-2-(5-fluoro-2-(5-fluoro-1H-pyrrolo[2,3-b]pyridin-3-yl)pyrimidin-4-ylamino)-3,3-dimethylbutane-1-sulfonamide] | < 300 | < 0.3 | < 300 |
| CC(C)(C)[C@@H](CS(=O)(=O)O)Nc1nc(-c2c[nH]c3ncc(F)cc23)c(C#N)cc1F [Compound 25, (S)-2-(5-cyano-3-fluoro-6-(5-fluoro-1H-pyrrolo[2,3-b]pyridin-3-yl)pyridin-2-ylamino)-3,3-dimethylbutane-1-sulfonic acid] | < 300 | < 0.3 | < 300 |
| CC(C)(C)[C@@H](CC(=O)O)Nc1nc(-c2c[nH]c3ncc(C#N)cc23)ncc1F [Compound 89, (R)-3-((2-(5-cyano-1H-pyrrolo[2,3-b]pyridin-3-yl)-5-fluoropyrimidin-4-yl)amino)-4,4-dimethylpentanoic acid] | < 300 | 0.3 to 3.3 | < 300 |
| CC1(C(CC(=O)O)Nc2nc(-c3n[nH]c4ncc(F)cc34)ncc2F)CCCC1 (racemic) [Compound 12, (+/−)-3-(5-fluoro-2-(5-fluoro-1H-pyrazolo[3,4-b]pyridin-3-yl)pyrimidin-4-ylamino)-3-(1-methylcyclopentyl)propanoic acid] | < 300 | < 0.3 | < 300 |
| CC(C)(C)[C@@H](CS(=O)(=O)NCC(F)(F)F)Nc1nc(-c2c[nH]c3ncc(F)cc23)ncc1F [Compound 58, (S)-2-(5-fluoro-2-(5-fluoro-1H-pyrrolo[2,3-b]pyridin-3-yl)pyrimidin-4-ylamino)-3,3-dimethyl-N-(2,2,2-trifluoroethyl)butane-1-sulfonamide] | < 300 | < 0.3 | < 300 |
| CC(C)(C)C(Cc1nn[nH]n1)Nc1nc(-c2c[nH]c3ncc(F)cc23)ncc1F (racemic) [Compound 55, (+/−)-N-(3,3-dimethyl-1-(2H-tetrazol-5-yl)butan-2-yl)-5-fluoro-2-(5-fluoro-1H-pyrrolo[2,3-b]pyridin-3-yl)pyrimidin-4-amine] | < 300 | 0.3 to 3.3 | < 300 |
| CC(C)(C)[C@@H](CO)Nc1nc(-c2c[nH]c3ncc(F)cc23)ncc1F [Compound 32, (S)-2-(5-fluoro-2-(5-fluoro-1H-pyrrolo[2,3-b]pyridin-3-yl)pyrimidin-4-ylamino)-3,3-dimethylbutane-1-ol] | < 300 | < 0.3 | < 300 |
| CC(C)(C(CC(=O)O)Nc1nc(-c2c[nH]c3ncc(F)cc23)ncc1F)C(F)(F)F (racemic) [Compound 79, (+/−)-5,5,5-Trifluoro-3-(5-fluoro-2-(5-fluoro-1H-pyrrolo[2,3-b]pyridin-3-yl)pyrimidin-4-ylamino)-4,4-dimethylpentanoic acid] | 300 to 3300 | 0.3 to 3.3 | < 300 |
| O=C(O)CC(Nc1nc(-c2c[nH]c3ncc(F)cc23)ncc1F)C12CCC(CC1)C2 (racemic) [Compound 95, (+/−)-3-(Bicyclo[2.2.1]heptan-1-yl)-3-(5-fluoro-2-(5-fluoro-1H-pyrrolo[2,3-b]pyridin-3-yl)pyrimidin-4-ylamino)propanoic acid] | < 300 | 0.3 to 3.3 | < 300 |
